Where two headings read alike, the source gives them in different places.
Legend:
human TRPV3 = target: T1, human TRPV3 (Homo sapiens, UniProt Q8NET8); assay: In vitro antagonism of recombinant human TRPV3 activation (FLIPR Tetra calcium assay); format: cell-based; details: HEK293 cells stably expressing human TRPV3, agonist 2-APB at 80 μM
T1 construct: expressed in transfected cells
T1 sequence (Q8NET8 1-790): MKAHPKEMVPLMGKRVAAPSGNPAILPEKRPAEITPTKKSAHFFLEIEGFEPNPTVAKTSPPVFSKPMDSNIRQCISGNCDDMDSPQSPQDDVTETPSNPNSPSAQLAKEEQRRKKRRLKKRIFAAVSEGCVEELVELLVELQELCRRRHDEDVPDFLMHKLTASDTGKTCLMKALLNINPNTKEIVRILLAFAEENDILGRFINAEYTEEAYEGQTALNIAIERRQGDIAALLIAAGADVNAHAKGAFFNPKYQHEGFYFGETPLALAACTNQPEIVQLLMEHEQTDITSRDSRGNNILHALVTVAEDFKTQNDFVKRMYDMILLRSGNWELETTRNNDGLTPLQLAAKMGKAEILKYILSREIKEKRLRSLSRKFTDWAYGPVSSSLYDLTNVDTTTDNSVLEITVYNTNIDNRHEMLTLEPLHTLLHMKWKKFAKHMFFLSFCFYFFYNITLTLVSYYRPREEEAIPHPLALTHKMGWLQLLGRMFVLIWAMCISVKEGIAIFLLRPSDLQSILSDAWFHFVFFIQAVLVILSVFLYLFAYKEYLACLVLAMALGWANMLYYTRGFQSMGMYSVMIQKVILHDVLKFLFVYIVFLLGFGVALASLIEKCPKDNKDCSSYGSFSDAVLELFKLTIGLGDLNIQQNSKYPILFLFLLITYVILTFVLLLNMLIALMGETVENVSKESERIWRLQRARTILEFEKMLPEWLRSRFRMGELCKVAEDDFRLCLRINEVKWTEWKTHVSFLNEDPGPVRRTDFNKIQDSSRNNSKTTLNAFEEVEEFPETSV
Method: Test compounds were evaluated for ability to antagonize the activation of recombinant human TRPV3 using FLIPR® Tetra cellular screening. Specifically, on the day prior to the experiment recombinant HEK293 cells that stably express human TRPV3 were removed from tissue culture flasks and plated in growth medium at 20,000 cells/well into Poly-d-lysine coated black/clear 384-well Plate (Corning, 3845) using a Multidrop® dispenser (ThermoScientific, Waltham, Mass.). Prior to the start of the assay, the medium was removed by aspiration, and cells were loaded with 30 μL no-wash FLIPR® Calcium-4 dye (λEX=470-495 nm, λEM=515-575 nm; Molecular Devices, Sunnyvale, Calif.). The cells were then incubated for 90-120 minutes in the dark prior to addition of the test compound.
A double-addition protocol was used. The test compound (i.e., the TRPV3 antagonist) was added at the 10 second time point, followed by the addition of a TRPV3 agonist three minutes later. Each test compound evaluated was first dissolved in DMSO to prepare a 10 mM stock solution. A solution (5×) of the test compound was then prepared in DPBS (Dulbecco's Phosphate Buffered Saline) and 10 μl, of that solution was added to the cells at a delivery rate of 40 μL/sec. The TRPV3 agonist used to activate human TRPV3 expressed by the […] was 2-aminoethoxy-diphenyl borate (2-APB; Tocris Cookson, Ellisville, Mo.) at 80 μM. Final assay volume was 50 μl, Total length of an experimental run was 10 minutes.
Changes in fluorescence were measured over time using the FLIPR® instrument. The intensity of the fluorescence was captured and digitally transferred to an interfaced computer. The maximum response minus minimum response was calculated and expressed as the percentage of the maximum 2-APB response in the absence of antagonist. The concentration of 2-APB corresponds to its EC80.
Table 1 reports the IC50 values measured for the test compounds as human TRPV3 antagonists. […] Actual measured values are shown parenthetically after the reported range. In most cases, the values reported are average values from at least two runs (i.e., n≧2).

[1] = In vitro human microsomal stability assay; format: in vitro ADME; details: for HUMAN MICROSOMAL STABILITY (% REMAINING AFTER 30 MINUTES): microsomes, 0.5 h, 0.5 μM, pH 7.4
Method: (§1) Test compounds were evaluated for metabolic stability in an in vitro rat microsomal stability assay using rat liver microsomes (Sprague-Dawley, from BD Biosciences) and/or an in vitro human microsomal stability assay using human liver microsomes (Xenotech). […] Incubations were carried out at 37° C. with a final incubation volume of 135 μL. […] A 1.5 μL aliquot of reduced nicotine adenine disphosphonucleotide (NADPH) (Chem-Impex Int'L Inc., Lot 12532024) was also added to the time-zero plates.

[2] = In vitro rat microsomal stability assay; format: in vitro ADME, rat (Sprague-Dawley); details: for RAT MICROSOMAL STABILITY (% REMAINING AFTER 30 MINUTES): Sprague-Dawley, microsomes, 0.5 h, 0.5 μM, pH 7.4
Method: as §1

[3] = actual measured value shown parenthetically, in most cases average of at least two runs, read-out: IC50
[4] = reported range, read-out: IC50 (range class)

IC50 (human TRPV3; [3]) [µM] | HUMAN MICROSOMAL STABILITY (% REMAINING AFTER 30 MINUTES) [1] [%] | RAT MICROSOMAL STABILITY (% REMAINING AFTER 30 MINUTES) [2] [%] | IC50 (human TRPV3; [4]) [µM] | SMILES | HUMAN […] (% REMAINING AFTER 30 MINUTES) ([1]; human liver microsomes, 0.5 μM substrate, 0.25 mg/mL microsomal protein, pH 7.4, 37° C., NADPH, 30 minutes) [%] | RAT […] (% REMAINING AFTER 30 MINUTES) ([2]; rat liver microsomes (Sprague-Dawley), 0.5 μM substrate, 0.25 mg/mL microsomal protein, pH 7.4, 37° C., NADPH, 30 minutes) [%]
4.7 | 20 | 17 |  | OC(c1ccccn1)C1(c2ccc(Oc3ccccc3)cc2)CCC1 (centres unmarked) [Example 24, [1-(4-phenoxyphenyl)cyclobutyl](pyridin-2-yl)methanol] |  | 
> 20 | >85 | >85 | > 20 | OC1CC(c2cc(C(F)(F)F)ccn2)([C@H](O)c2ccccn2)C1 (stereo partly drawn) [Example 294, 3-[(S)-hydroxy(pyridin-2-yl)methyl]-3-[4-(trifluoromethyl)pyridin-2-yl]-cyclobutanol] |  | 
> 20 | <0.01 | <0.01 | > 20 | OC(C1CCCc2cccnc21)C1(c2ccccc2OC(F)(F)F)CCC1 (stereo not drawn) [Example 192, (syn)-5,6,7,8-tetrahydroquinolin-8-yl{1-[2-(trifluoromethoxy)phenyl]-cyclobutyl}methanol] |  | 
> 20 | 1.6 | <0.01 | > 20 | Nc1cccnc1C(O)C1(c2cccc(C(F)(F)F)c2)CCC1 (centres unmarked) [Example 120, (3-aminopyridin-2-yl) {1-[3-(trifluoromethyl)phenyl]cyclobutyl}methanol] |  | 
1 | 41 | 13 |  | CC1(O)CC(c2cncc(C(F)(F)F)c2)(C(O)c2ccccn2)C1 (single isomer, unassigned) [Example 308] |  | 
1.5 | 0.38 | 0.48 |  | OC(c1ccccn1)C1(c2ccccc2F)CCC1 (centres unmarked) [Example 1, [1-(2-fluorophenyl)cyclobutyl](pyridin-2-yl)methanol] |  | 
2.26 | >85 | 41 |  | N[C@@H]1CCC[C@@H]1[C@@H](O)C1(c2ccc(Cl)c(Cl)c2)CCC1 [Example 216, (R)-[(1S,2R)-2-aminocyclopentyl][1-(3,4-dichlorophenyl)cyclobutyl]-methanol] |  | 
2.13 | 66 | 82 |  | O=C1CC(c2ccc(F)c(Cl)c2)([C@H](O)c2ccccn2)C1 (single isomer, unassigned) [Example 268] |  | 
0.31 | 5.6 | 1.2 |  | OC(c1ccccn1)C1(c2ccc(F)c(C(F)(F)F)c2)CCC1 (centres unmarked) [Example 15, {1-[4-fluoro-3-(trifluoromethyl)phenyl]cyclobutyl}(pyridin-2-yl)methanol] |  | 
1.1 | 21 | 13 |  | OC(c1ccccn1)C1(c2ccc(C(F)(F)F)c(F)c2)CCC1 (centres unmarked) [Example 17] |  | 
11.6 | 51 | 1.1 |  | Nc1cccnc1C(O)C1(c2ccc(C(F)(F)F)cc2)CCC1 (centres unmarked) [Example 127, (3-aminopyridin-2-yl) {1-[4-(trifluoromethyl)phenyl]cyclobutyl}methanol] |  | 
3.65 | 57 | 72 |  | O=C1CC(c2cccc(C(F)(F)F)c2)(C(O)c2ccccn2)C1 (centres unmarked) [Example 245, 3-[hydroxy(pyridin-2-yl)methyl]-3-[3-(trifluoromethyl)phenyl]-cyclobutanone] |  | 
0.23 | 56 | 78 |  | O[C@H](c1ccccn1)C1(c2ccc(C(F)(F)F)cc2)CC(F)(F)C1 [Example 154, (S)-{3,3-difluoro-1-[4-(trifluoromethyl)phenyl]cyclobutyl}(pyridin-2-yl)-methanol] |  | 
5.36 | 19 | 23 |  | OC(c1ccccn1)C1(c2cccc(C(F)(F)F)n2)CCC1 (centres unmarked) [Example 234, pyridin-2-yl{1-[6-(trifluoromethyl)pyridin-2-yl]cyclobutyl}methanol] |  | 
2.07 | >85 | 65 |  | N[C@@H]1CCC[C@H]1[C@@H](O)C1(c2ccc(OC(F)(F)F)cc2)CCC1 [Example 223, (R)-[(1R,2R)-2-aminocyclopentyl]{1-[4-(trifluoromethoxy)phenyl]-cyclobutyl}methanol] |  | 
13.8 | >85 | 74 |  | CC1(O)CC(c2ccc(OC(F)(F)F)cc2)(C(O)c2ccccn2)C1 (single isomer, unassigned) [Example 203] |  | 
> 20 | 71 | 52 | > 20 | OC(c1ccccn1)C1(c2ccncc2)CCC1 (centres unmarked) [Example 21, pyridin-2-yl(1-pyridin-4-ylcyclobutyl)methanol] |  | 
2.61 | 71 | 81 |  | O=C1CC(c2ccc(C(F)(F)F)cc2)([C@H](O)c2ccccn2)C1 (single isomer, unassigned) [Example 164] |  | 
 | 57 | 0.072 |  | OC(c1ccccn1)C1(C2CCOCC2)CCC1 (centres unmarked) [Example 239, pyridin-2-yl[1-(tetrahydro-2H-pyran-4-yl)cyclobutyl]methanol] |  | 
 | 40 | 12 |  | OC(c1ccccn1)C1(C2=CCCOC2)CCC1 (single isomer, unassigned) [Example 269, [1-(5,6-dihydro-2H-pyran-3-yl)cyclobutyl](pyridin-2-yl)methanol] |  | 
 |  |  |  | OC(C1CCc2cccnc21)C1(c2ccccc2OC(F)(F)F)CCC1 (stereo not drawn) [Example 193, (anti)-6,7-dihydro-5H-cyclopenta[b]pyridin-7-yl{1-[2-(trifluoromethoxy)-phenyl]cyclobutyl}methanol] | 0.02 | <0.01
 | 17 | 0.48 |  | OC(c1ccccn1)C1(C2=COCCC2)CCC1 (single isomer, unassigned) [Example 270, [1-(3,4-dihydro-2H-pyran-5-yl)cyclobutyl](pyridine-2-yl)methanol] |  | 
3.05 | >85 |  |  | CC1(O)CC(c2cncc(C(F)(F)F)c2)(C(O)c2ccccn2)C1 (single isomer, unassigned) [Example 309] |  | 
